Drawing on patent US12544395B2, “Combination compositions comprising a beta-lactamase inhibitor and uses thereof” (priority 2018, dated 2026), this text covers MIC, MIC50 and MIC90 for 1 molecule.

Type in all cases: cell-based
The subject of one assay is E. coli 1924. The assay can be described thus: Broth microdilution MIC (strain enzymes: TEM-12). To be noted: Escherichia coli, 1924; alone; read-out: MIC of ceftibuten (CTB).
A further assay concerns E. coli 2150. Kind of assay: Broth microdilution MIC (strain enzymes: SHV-3, TEM-1). As to conditions: Escherichia coli, 2150; alone; read-out: MIC of ceftibuten (CTB). In general terms: Dilution methods test growth across graded concentrations, often in twofold steps.
For the next assay, the system named is E. coli ESBL 2. The assay can be described thus: Broth microdilution MIC (strain enzymes: TEM-1). To be noted: Escherichia coli, ESBL2; alone; read-out: MIC of ceftibuten (CTB).
The subject of a further assay is E. coli ESBL 5. The assay can be described thus: Broth microdilution MIC (strain enzymes: CTX-M15, TEM-1). To be noted: Escherichia coli, ESBL5; alone; read-out: MIC of ceftibuten (CTB).
The test system of another assay is E. coli SI-NO36. The assay can be described thus: Broth microdilution MIC (strain enzymes: SHV-11, TEM-1). As to conditions: Escherichia coli, SINO36; alone; read-out: MIC of ceftibuten (CTB).
The subject of a further assay is E. coli SI-V502. The assay can be described thus: Broth microdilution MIC (strain enzymes: TEM-29, CTX-M15). As to conditions: Escherichia coli, SIV502; alone; read-out: MIC of ceftibuten (CTB).
A further assay deals with K. oxytoca 169219. The assay can be described thus: Broth microdilution MIC (strain enzymes: TEM-1, CTXM-15). As to conditions: Klebsiella oxytoca, 169219; alone; read-out: MIC of ceftibuten (CTB).
For a further assay, the system named is K. oxytoca 176877. Kind of assay: Broth microdilution MIC (strain enzymes: SHV-105). To be noted: Klebsiella oxytoca, 176877; alone; read-out: MIC of ceftibuten (CTB).
A further assay deals with K. oxytoca 496 #2. The assay can be described thus: Broth microdilution MIC (strain enzymes: SHV-105, TEM-1). To be noted: Klebsiella oxytoca; alone; read-out: MIC of ceftibuten (CTB).
The subject of the next assay is K. pneumoniae 3151. The assay can be described thus: Broth microdilution MIC (strain enzymes: SHV-12, TEM-1). To be noted: Klebsiella pneumoniae, 3151; alone; read-out: MIC of ceftibuten (CTB).
A further assay concerns K. pneumoniae 115468. The assay can be described thus: Broth microdilution MIC (strain enzymes: TEM-1). As to conditions: Klebsiella pneumoniae, 115468; alone; read-out: MIC of ceftibuten (CTB).
The test system of the next assay is K. pneumoniae 304487. The assay can be described thus: Broth microdilution MIC (strain enzymes: SHV-12,TEM-1). To be noted: Klebsiella pneumoniae, 304487; alone; read-out: MIC of ceftibuten (CTB).
A further assay deals with K. pneumoniae 319478. Kind of assay: Broth microdilution MIC (strain enzymes: SHV-12, CTX-M3 and TEM-1). As to conditions: Klebsiella pneumoniae, 319478; alone; read-out: MIC of ceftibuten (CTB).
A further assay deals with K. pneumoniae ESBL 8 #1. Kind of assay: Broth microdilution MIC (strain enzymes: TEM-1, SHV-12). As to conditions: Klebsiella pneumoniae; alone; read-out: MIC of ceftibuten (CTB).
Another assay relates to K. pneumoniae ESBL 8 #2. The assay can be described thus: Broth microdilution MIC (strain enzymes: SHV-12, TEM-1). To be noted: Klebsiella pneumoniae; alone; read-out: MIC of ceftibuten (CTB).
A further assay deals with K. pneumoniae ESBL 7 #2. The assay can be described thus: Broth microdilution MIC (strain enzymes: SHV-12, CTX-M15, TEM-1). As to conditions: Klebsiella pneumoniae; alone; read-out: MIC of ceftibuten (CTB).
A further assay relates to K. pneumoniae KP 3. The assay can be described thus: Broth microdilution MIC (strain enzymes: SHV-1, TEM-1). To be noted: Klebsiella pneumoniae, KP3; alone; read-out: MIC of ceftibuten (CTB).
In a further assay the test system is K. pneumoniae KP 4. Kind of assay: Broth microdilution MIC (strain enzymes: SHV-2a, SHV-5, TEM-1). To be noted: Klebsiella pneumoniae, KP4; alone; read-out: MIC of ceftibuten (CTB).
The subject of another assay is K. pneumoniae KPN 508. Kind of assay: Broth microdilution MIC (strain enzymes: SHV-7, TEM-1). As to conditions: Klebsiella pneumoniae, KPN508; alone; read-out: MIC of ceftibuten (CTB).
For the next assay, the system named is K. pneumoniae BAA 1705. Kind of assay: Broth microdilution MIC (strain KPC-producing). As to conditions: Klebsiella pneumoniae, BAA1705; alone; read-out: MIC of ceftibuten (CTB).
For assay [1], the system named is panel of ESBL-producing Enterobacteriaceae (40 strains). Kind of assay: Broth microdilution MIC50/MIC90 summary over the panel.

The structures appear in SMILES notation. In brackets after ≈: the same amount, converted by molar mass.

Broadly, the MIC is the lowest concentration that inhibits growth of the organism. Usually MIC50 stands for an inhibitory concentration at the 50% level, which refers to growth in some studies and to a panel of isolates in others. For orientation: MIC90 means an inhibitory concentration at the 90% level, which refers to growth in some studies and to a panel of isolates in others. `Nc1nc(/C(=C/CC(=O)O)C(=O)N[C@@H]2C(=O)N3C(C(=O)O)=CCS[C@H]23)cs1` [Ceftibuten, ceftibuten, reference compound]: the MIC with E. coli 1924 was 0.5 µg/mL; in the assay with E. coli 2150, 0.5 µg/mL; in the assay on E. coli ESBL 2 it was 8 µg/mL; with E. coli ESBL 5, more than 32 µg/mL; in the assay with E. coli SI-NO36 it was 0.5 µg/mL; in the assay with E. coli SI-V502 it was 0.5 µg/mL. The MIC with K. oxytoca 169219 is 4 µg/mL; in the assay on K. oxytoca 176877, 4 µg/mL; with K. oxytoca 496 #2, 8 µg/mL; with K. pneumoniae 3151, more than 32 µg/mL; in the assay on K. pneumoniae 115468, 8 µg/mL; with K. pneumoniae 304487, 8 µg/mL. Besides, the MIC in the assay on K. pneumoniae 319478 was more than 32 µg/mL; with K. pneumoniae ESBL 8 #1, 16 µg/mL; with K. pneumoniae ESBL 8 #2 it was 16 µg/mL; in the assay with K. pneumoniae ESBL 7 #2, more than 32 µg/mL; in the assay on K. pneumoniae KP 3 it was 2 µg/mL; with K. pneumoniae KP 4, 32 µg/mL. For the same molecule, the MIC in the assay on K. pneumoniae KPN 508 and with K. pneumoniae BAA 1705 was 32 µg/mL throughout. In addition, the MIC50 in assay [1] (read-out: Ceftibuten MIC50) worked out at 8 µg/mL (≈ 19.5 µM). The MIC90 in assay [1] (read-out: Ceftibuten MIC90) was more than 32 µg/mL.
